Where a name gives a salt, the structure may show the parent alone.
System: Human WB (90%) CD69
Test: Human WB (90%) CD69
Assay type: cell-based
Details: read-out: Human WB (90%) CD69 IC50 (nM); human whole blood (90%), CD69 readout

Q: Cc1nc2c(N3CCC(CNC4CCOCC4)CC3)cc(-c3ccc(N4CCN(C(C)C)CC4)cc3)cc2n1C [Example 61, N-((1-(6-(4-(4-isopropylpiperazin-1-yl)phenyl)-1,2-dimethyl-1H-benzo[d]imidazol-4-yl)piperidin-4-yl)methyl)tetrahydro-2H-pyran-4-amine] was tested. Which IC50 did it give?
A: The IC50 was 156 nM.

Q: Which IC50 does the source give for CC(C)N1CCN(c2ccc(-c3cc(NCCN4CCOCC4)c4nc(C5CCOCC5)n(C)c4c3)cc2)CC1 [Example 47, 6-(4-(4-isopropylpiperazin-1-yl)phenyl)-1-methyl-N-(2-morpholinoethyl)-2-(tetrahydro-2H-pyran-4-yl)-1H-benzo[d]imidazol-4-amine, 2 TFA] here?
A: The IC50 was 181 nM.

Q: Cc1nc2c(NCCc3ccc(S(C)(=O)=O)cc3)cc(-c3ccc(N4CCN(C(C)C)CC4)cc3)cc2n1C [Example 10, 6-(4-(4-isopropylpiperazin-1-yl)phenyl)-1,2-dimethyl-N-(4-(methylsulfonyl)phenethyl)-1H-benzo[d]imidazol-4-amine] was tested. Which IC50 did it give?
A: Its IC50 is 813 nM.

Q: For Cc1cc(C)nc(Nc2cc(-c3ccc(N4CCN(C(C)C)CC4)cc3)cc3c2nc(C(C)C)n3C)c1 [Example 26, N-(4,6-dimethylpyridin-2-yl)-2-isopropyl-6-(4-(4-isopropylpiperazin-1-yl)phenyl)-1-methyl-1H-benzo[d]imidazol-4-amine], which IC50 is on record?
A: Its IC50 is 578 nM.

Q: Which IC50 does the source give for Cc1nc2c(NC3CCN(S(C)(=O)=O)CC3)cc(-c3ccc(N4CCN(C(C)C)CC4)cc3)cc2n1C [Example 13, 6-(4-(4-isopropylpiperazin-1-yl)phenyl)-1,2-dimethyl-N-(1-(methylsulfonyl)piperidin-4-yl)-1H-benzo[d]imidazol-4-amine] here?
A: The IC50 was 1220 nM.

Q: Which IC50 does the source give for Cc1ccc(Nc2cc(-c3ccc(N4CCN(C(C)C)CC4)cc3)cc3c2nc(C)n3C)nn1 [Example 24, 6-(4-(4-isopropylpiperazin-1-yl)phenyl)-1,2-dimethyl-N-(6-methylpyridazin-3-yl)-1H-benzo[d]imidazol-4-amine] here?
A: Its IC50 is 600 nM.

Q: COc1ccc(-c2nc3c(N4CCN(C5COC5)CC4)cc(-c4ccc(N5CCN(C(C)C)CC5)cc4)cc3n2C)cc1OC [Example 59, 2-(3,4-dimethoxyphenyl)-6-(4-(4-isopropylpiperazin-1-yl)phenyl)-1-methyl-4-(4-(oxetan-3-yl)piperazin-1-yl)-1H-benzo[d]imidazole] was tested. Which IC50 did it give?
A: The IC50 was 651 nM.

Q: Which IC50 does the source give for Cc1cc(C)nc(Nc2cc(-c3ccc(N4CCN(C(C)C)CC4)cc3)cc3c2nc(-c2cc[nH]n2)n3C)c1 [Example 53, N-(4,6-dimethylpyridin-2-yl)-6-(4-(4-isopropylpiperazin-1-yl)phenyl)-1-methyl-2-(1H-pyrazol-3-yl)-1H-benzo[d]imidazol-4-amine, TFA] here?
A: The IC50 was 75 nM.

Q: For CC(C)N1CCN(c2ccc(-c3cc(NCc4ccc(CN5CCOCC5)cc4)c4nc(-c5ccc(S(C)(=O)=O)cc5)n(C)c4c3)cc2)CC1 [Example 36, 6-(4-(4-isopropylpiperazin-1-yl)phenyl)-1-methyl-2-(4-(methylsulfonyl)phenyl)-N-(4-(morpholinomethyl)benzyl)-1H-benzo[d]imidazol-4-amine], which IC50 is on record?
A: Its IC50 is 221 nM.

Q: For Cc1cc(Nc2cc(-c3ccc(N4CCN(C(C)C)CC4)cc3)cc3c2nc(C)n3C)cnc1C [Example 19, N-(5,6-dimethylpyridin-3-yl)-6-(4-(4-isopropylpiperazin-1-yl)phenyl)-1,2-dimethyl-1H-benzo[d]imidazol-4-amine], which IC50 is on record?
A: Its IC50 is 452 nM.

Q: For Cc1nc2c(NCc3ccc(S(C)(=O)=O)cc3)cc(-c3ccc(N4CCN(C(C)C)CC4)cc3)cc2n1C [Example 11, 6-(4-(4-isopropylpiperazin-1-yl)phenyl)-1,2-dimethyl-N-(4-(methylsulfonyl)benzyl)-1H-benzo[d]imidazol-4-amine], which IC50 is on record?
A: Its IC50 is 918 nM.

Q: For CC(C)c1nc2c(NCCN3CCOCC3)cc(-c3ccc(N4CCN(C(C)C)CC4)cc3)cc2n1C [Example 25, 2-isopropyl-6-(4-(4-isopropylpiperazin-1-yl)phenyl)-1-methyl-N-(2-morpholinoethyl)-1H-benzo[d]imidazol-4-amine, 2 TFA], which IC50 is on record?
A: The IC50 was 530 nM.
